Laboratory results published in US20230293560A1, “METHOD FOR MODULATING THE BLADDER MICROBIOME TO IMPROVE BLADDER HEALTH” (Kimberly-Clark Worldwide, Inc., priority 2020, published 2023).

Tests used:
L. jensenii = assay: High throughput assay screening of prebiotics; type: cell-based, Lactobacillus jensenii; parameters: key: ++: if growth and fermentation was equal to or greater than the positive control; +: if growth and fermentation was less than the positive control; +: if weak or no growth or fermentation; +^2: Bacteria demonstrated growth but no fermentation on the prebiotic; settings: 2% w/v prebiotic in API 50 CHL media; for growth and fermentation vs positive control, Lj-2: L. jensenii KC17-4347-1, Bladder
Description: (§1) Most of the prebiotic compounds were initially tested in a high throughput assay screening process, described further in the Test Methods section herein, but three prebiotics (as noted in Table 3) were tested using a plate assay screening process as described in the Test Methods section herein. The prebiotics were tested against the commensal bacterial species of Lactobacillus crispatus, Lactobacillus gasseri, and Lactobacillus jensenii and against the pathogenic bacterial species of Streptococcus anginosus and Enterococcus faecalis as shown in Table 2. The bacterial species were taken from different sources, listed as culture collection, bladder, and vagina.
(§2) The results of the assay plate screening of the prebiotic compounds of Table 1 against the bacterial species of Table 2 is documented in Table 3 with the results being described by the following legend: • ++ if growth and fermentation was equal to or greater than the positive control • + if growth and fermentation was less than the positive control • […] if weak or no growth or fermentation • NT if not tested Some codes were not tested based on the use or non-use by the bacteria, as a way to efficiently move through the assay plate screening to the competition assay, described below.
(§3) • 1. Create a 2% w/v stock of prebiotic or positive control (glucose/dextrose) to be tested in API 50 CHL media (Biomerieux, Marcy-I'Étoile, France). API 50 CHL media contains minimal amounts of carbon for growth, and a bromocresol purple as a pH indicator of fermentation. Filter sterilize media with a […]. Store at 4-6° C. until use. • 2. Add 180 μL of media containing the prebiotic to a sterile, flat bottom 96-well microtiter plate (Corning, Corning, NY). • 3. From a freezer stock subculture the bacteria twice into De Man, Rogosa and Sharpe (MRS) broth (BD Difco, Becton Dickinson, Franklin Lakes, NJ), 37° C., stationary, anaerobic, overnight. • 4. From the last subculture, plate onto an MRS agar plate (Teknova, Hollister, CA) and grow 37° C., stationary, anaerobic, overnight. • 5. Create a bacterial suspension by using a sterile tipped swab to transfer colonies of bacteria into a PBS suspension blank to a 0.5 MacFarland (S. anginosus or E. faecalis) or a 1 MacFarland (Lactobacillus species) from the MRS agar plate. • 6. Enumerate the starting culture. • 7. Inoculate the media alone and media containing the prebiotic or positive control with 20 μL of the bacterial suspension. • 8. Place the plate into a spectrophotometer (Molecular Devices, San Jose, CA) and read the plate every 20 minutes for 24-48 hours. Read wavelengths (OD 430, OD 590, and OD 660). A color change to yellow caused by a drop in pH will be read by an increase in the OD430 value and a decrease in the OD590 value and is indicative of bacterial fermentation. An increase in OD660 values is indicative of an increase in turbidity and bacterial growth.

L. gasseri = assay: High throughput assay screening of prebiotics; type: cell-based, Lactobacillus gasseri; parameters: key: ++: if growth and fermentation was equal to or greater than the positive control; +: if growth and fermentation was less than the positive control; +: if weak or no growth or fermentation; +^2: Bacteria demonstrated growth but no fermentation on the prebiotic; settings: 2% w/v prebiotic in API 50 CHL media; for growth and fermentation vs positive control, Lg-1: L. gasseri KC16-7135-1, Bladder; for growth and fermentation vs positive control, Lg-2: L. gasseri KC16-7171-1, Bladder
Description: as §1, §2, §3

S. anginosus = assay: High throughput assay screening of prebiotics; type: cell-based, Streptococcus anginosus; parameters: key: ++: if growth and fermentation was equal to or greater than the positive control; +: if growth and fermentation was less than the positive control; +: if weak or no growth or fermentation; +^2: Bacteria demonstrated growth but no fermentation on the prebiotic; settings: 2% w/v prebiotic in API 50 CHL media; for growth and fermentation vs positive control, Sa-2: S. anginosus KC18-1131-3B, Bladder; for growth and fermentation vs positive control, Sa-1: S. anginosus ATCC 33397, Culture Collection
Description: as §1, §2, §3

[1] = tested on: commensal and pathogenic bacterial species; assay: Prebiotic screening, summary in words across species; type: cell-based; settings: commensal (L. crispatus, L. gasseri, L. jensenii) and pathogenic (S. anginosus, E. faecalis) species
Outline: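 Prebiotics at 2% w/v stock in API 50 CHL medium with bromocresol purple, inoculated with bacteria and read every 20 min for 24-48 h at OD430/590 (fermentation) and OD660 (growth), scored against a glucose control. Some tested on MRS-based agar with the prebiotic in place of glucose; competition assay with L. crispatus and S. anginosus incubated 48 h anaerobically at 37 °C, then enumerated on MRS and TSA.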

E. faecalis = assay: High throughput assay screening of prebiotics; type: cell-based, Enterococcus faecalis; parameters: key: ++: if growth and fermentation was equal to or greater than the positive control; +: if growth and fermentation was less than the positive control; +: if weak or no growth or fermentation; +^2: Bacteria demonstrated growth but no fermentation on the prebiotic; settings: 2% w/v prebiotic in API 50 CHL media; for growth and fermentation vs positive control, Ef-2: E. faecalis KC16-7171-3, Bladder; for growth and fermentation vs positive control, Ef-3: E. faecalis KC17-3969-2B, Bladder; for growth and fermentation vs positive control, Ef-4: E. faecalis KC17-4331-3, Bladder; for growth and fermentation vs positive control, Ef-1: E. faecalis ATCC BAA-2128, Culture Collection
Description: as §1, §2, §3

L. crispatus = assay: High throughput assay screening of prebiotics; type: cell-based, Lactobacillus crispatus; parameters: key: ++: if growth and fermentation was equal to or greater than the positive control; +: if growth and fermentation was less than the positive control; +: if weak or no growth or fermentation; +^2: Bacteria demonstrated growth but no fermentation on the prebiotic; settings: 2% w/v prebiotic in API 50 CHL media; for growth and fermentation vs positive control, Lc-2: L. crispatus KC16-7134-3C, Bladder; for growth and fermentation vs positive control, Lc-3: L. crispatus KC18-1173-1, Bladder; for growth and fermentation vs positive control, Lc-4: L. crispatus KC18-1174-1, Vagina; for growth and fermentation vs positive control, Lc-1: L. crispatus ATCC 33820, Culture Collection
Description: as §1, §2, §3

Row | Compound | growth and fermentation vs positive control, Lj-1 (L. jensenii; L. jensenii KC17-4297-18, Bladder) | growth and fermentation vs positive control, Lg-1 (L. gasseri) | growth and fermentation vs positive control, Lg-2 (L. gasseri) | growth and fermentation vs positive control, Lg-3 (L. gasseri; L. gasseri KC18-1131-2, Bladder) | growth and fermentation vs positive control, Lg-4 (L. gasseri; L. gasseri KC18-1142-2, Bladder) | growth and fermentation vs positive control, Sa-2 (S. anginosus) | overall outcome of the screening of Table 3, in words [1] | growth and fermentation vs positive control, Ef-2 (E. faecalis) | growth and fermentation vs positive control, Ef-3 (E. faecalis) | growth and fermentation vs positive control, Ef-4 (E. faecalis) | growth and fermentation vs positive control, Lc-2 (L. crispatus) | growth and fermentation vs positive control, Lc-3 (L. crispatus) | growth and fermentation vs positive control, Lc-4 (L. crispatus) | growth and fermentation vs positive control, Lj-2 (L. jensenii) | growth and fermentation vs positive control, Sa-1 (S. anginosus) | growth and fermentation vs positive control, Ef-1 (E. faecalis) | growth and fermentation vs positive control, Lc-1 (L. crispatus)
1 | OC[C@H]1O[C@@H](O[C@H]2[C@H](O)[C@@H](O)[C@H](O)O[C@@H]2CO)[C@H](O)[C@@H](O)[C@@H]1O [D-Cellobiose] | + | + | ++ | ++ | ++ | ++ | able to provide growth on the commensal bacterial species, but also provided growth on the pathogenic bacterial species | ++ | ++ | ++ | ++ | + | + |  |  |  | 
2 | OCc1ccccc1O[C@@H]1O[C@H](CO)[C@@H](O)[C@H](O)[C@H]1O [Salicin] |  | ++ |  |  |  | ++ | able to provide growth on the commensal bacterial species, but also provided growth on the pathogenic bacterial species | ++ | ++ | ++ |  |  |  | ++ | ++ | ++ | ++
3 | Maltotriose |  | ++ | ++ |  |  | ++ | able to provide growth on the commensal bacterial species, but also provided growth on the pathogenic bacterial species | ++ | ++ | ++ | ++ | ++ | ++ | ++ | ++ | ++ | ++
